Test system: MV-4-11 cells
Experiment: Gene expression microarray analysis (Affymetrix PrimeView) and GSEA
Assay type: cell-based, human
Parameters: RFU PODN (11730768_x_at) / Fold change /veh PODN (11730768_x_at) / RFU LINC00158 (11744669_a_at) / Fold change /veh LINC00158 (11744669_a_at) / RFU DUSP10 (11751237_a_at) / Fold change /veh DUSP10 (11751237_a_at) / RFU ID3 (11757404_x_at) / Fold change /veh ID3 (11757404_x_at) / RFU PLEKHG5 (11737974_s_at) / Fold change /veh PLEKHG5 (11737974_s_at) / RFU LRRC4B (11730491_at) / Fold change /veh LRRC4B (11730491_at) / RFU GIMAP4 (11747438_a_at) / Fold change /veh GIMAP4 (11747438_a_at) / RFU KRT8 (11758183_x_at) / Fold change /veh KRT8 (11758183_x_at) / RFU CNN1 (11734310_a_at) / Fold change /veh CNN1 (11734310_a_at) / RFU VPS37D (11726825_at) / Fold change /veh VPS37D (11726825_at) / RFU C10orf10 (11716522_x_at) / Fold change /veh C10orf10 (11716522_x_at) / RFU KIR2DL2 /// KIR2DL4 /// KIR2DL5A /// KIR2DL5B /// KIR2DS1 /// KIR2DS2 /// KIR2DS3 /// KIR2DS4 /// KIR3DL3 /// KIR3DL3 /// KIR3DS1 (11738374_at) / Fold change /veh KIR2DL2 /// KIR2DL4 /// KIR2DL5A /// KIR2DL5B /// KIR2DS1 /// KIR2DS2 /// KIR2DS3 /// KIR2DS4 /// KIR3DL3 /// KIR3DL3 /// KIR3DS1 (11738374_at) / RFU C1QL1 (11718748_at) / Fold change /veh C1QL1 (11718748_at) / RFU TMPRSS4 (11747572_a_at) / Fold change /veh TMPRSS4 (11747572_a_at) / RFU HAMP (11756126_x_at) / Fold change /veh HAMP (11756126_x_at) / RFU RNFT2 (11725882_a_at) / Fold change /veh RNFT2 (11725882_a_at) / RFU NR4A2 (11747474_a_at) / Fold change /veh NR4A2 (11747474_a_at) / RFU ABCC12 (11746883_a_at) / Fold change /veh ABCC12 (11746883_a_at) / RFU TMEM136 (11760407_x_at) / Fold change /veh TMEM136 (11760407_x_at) / RFU CLDN22 /// WWC2 (11732394_at) / Fold change /veh CLDN22 /// WWC2 (11732394_at) / RFU HLA-DPB1 (11760878_x_at) / Fold change /veh HLA-DPB1 (11760878_x_at) / RFU SPINT1 (11716480_a_at) / Fold change /veh SPINT1 (11716480_a_at) / RFU GAP43 (11754022_s_at) / Fold change /veh GAP43 (11754022_s_at) / RFU A4GNT (11735810_at) / Fold change /veh A4GNT (11735810_at) / RFU PRB3 (11715151_x_at) / Fold change /veh PRB3 (11715151_x_at) / RFU TUBB4B (11761932_at) / Fold change /veh TUBB4B (11761932_at) / RFU CAPN14 (11732068_a_at) / Fold change /veh CAPN14 (11732068_a_at) / RFU TMCC2 (11721928_a_at) / Fold change /veh TMCC2 (11721928_a_at) / RFU IRGQ (11745062_a_at) / Fold change /veh IRGQ (11745062_a_at) / RFU FAM174B (11720279_a_at) / Fold change /veh FAM174B (11720279_a_at) / RFU TMPRSS4 (11748680_a_at) / Fold change /veh TMPRSS4 (11748680_a_at) / RFU FAM212B (11763350_a_at) / Fold change /veh FAM212B (11763350_a_at) / RFU PLEKHG5 (11743358_a_at) / Fold change /veh PLEKHG5 (11743358_a_at) / RFU ZSCAN30 (11745921_a_at) / Fold change /veh ZSCAN30 (11745921_a_at) / RFU CMKLR1 (11741424_a_at) / Fold change /veh CMKLR1 (11741424_a_at) / RFU LOC101060620 /// MAPK8IP1 (11723275_at) / Fold change /veh LOC101060620 /// MAPK8IP1 (11723275_at) / RFU SPTSSB (11747773_x_at) / Fold change /veh SPTSSB (11747773_x_at) / RFU PRSS12 (11739890_at) / Fold change /veh PRSS12 (11739890_at) / RFU BIN1 (11741810_x_at) / Fold change /veh BIN1 (11741810_x_at) / RFU WNT11 (11732464_a_at) / Fold change /veh WNT11 (11732464_a_at) / RFU C10orf10 (11716521_a_at) / Fold change /veh C10orf10 (11716521_a_at) / RFU C5orf56 (11738089_at) / Fold change /veh C5orf56 (11738089_at) / RFU CYB561 (11721691_x_at) / Fold change /veh CYB561 (11721691_x_at) / RFU ANKRD19P (11752326_a_at) / Fold change /veh ANKRD19P (11752326_a_at) / RFU OR2T12 /// OR2T33 /// OR2T8 (11738714_s_at) / Fold change /veh OR2T12 /// OR2T33 /// OR2T8 (11738714_s_at) / RFU VCAN (11748164_a_at) / Fold change /veh VCAN (11748164_a_at) / RFU JSRP1 (11732532_at) / Fold change /veh JSRP1 (11732532_at) / RFU KRTAP10-11 (11738290_x_at) / Fold change /veh KRTAP10-11 (11738290_x_at) / RFU MYO3A (11730013_a_at) / Fold change /veh MYO3A (11730013_a_at) / RFU EBF3 (11725865_a_at) / Fold change /veh EBF3 (11725865_a_at) / RFU CAMK2N1 (11719241_x_at) / Fold change /veh CAMK2N1 (11719241_x_at) / RFU C5orf56 (11738088_a_at) / Fold change /veh C5orf56 (11738088_a_at) / RFU OLFML3 (11715873_a_at) / Fold change /veh OLFML3 (11715873_a_at) / RFU LOC100653217 /// NTM (11731650_a_at) / Fold change /veh LOC100653217 /// NTM (11731650_a_at) / RFU MAPK11 (11762145_a_at) / Fold change /veh MAPK11 (11762145_a_at) / RFU FIZ1 (11724087_x_at) / Fold change /veh FIZ1 (11724087_x_at) / RFU OASL (11726364_x_at) / Fold change /veh OASL (11726364_x_at) / RFU SOX15 (11748057_x_at) / Fold change /veh SOX15 (11748057_x_at) / RFU CD79A (11719716_a_at) / Fold change /veh CD79A (11719716_a_at) / RFU HIST1H1D (11736915_at) / Fold change /veh HIST1H1D (11736915_at) / RFU CASKIN2 (11723855_a_at) / Fold change /veh CASKIN2 (11723855_a_at) / RFU LOC730098 (11760151_x_at) / Fold change /veh LOC730098 (11760151_x_at) / RFU OR4N2 (11742367_at) / Fold change /veh OR4N2 (11742367_at) / RFU PRRT2 (11749266_a_at) / Fold change /veh PRRT2 (11749266_a_at) / RFU SNX32 (11753110_a_at) / Fold change /veh SNX32 (11753110_a_at) / RFU CDHR5 (11726645_a_at) / Fold change /veh CDHR5 (11726645_a_at) / RFU RCAN1 (11760418_a_at) / Fold change /veh RCAN1 (11760418_a_at) / RFU FAM167A (11723789_a_at) / Fold change /veh FAM167A (11723789_a_at) / RFU FAM26E (11764081_at) / Fold change /veh FAM26E (11764081_at) / RFU ISYNA1 (11749810_s_at) / Fold change /veh ISYNA1 (11749810_s_at) / RFU ACY1 (11761880_at) / Fold change /veh ACY1 (11761880_at) / RFU 11764098_at / Fold change /veh 11764098_at / RFU SAMD14 (11745864_x_at) / Fold change /veh SAMD14 (11745864_x_at) / RFU NPB (11741838_a_at) / Fold change /veh NPB (11741838_a_at) / RFU TMPRSS6 (11731388_a_at) / Fold change /veh TMPRSS6 (11731388_a_at) / RFU KRTAP10-2 (11738614_at) / Fold change /veh KRTAP10-2 (11738614_at) / RFU ARHGAP8 /// PRR5-ARHGAP8 (11727945_x_at) / Fold change /veh ARHGAP8 /// PRR5-ARHGAP8 (11727945_x_at) / RFU KRTAP5-7 /// NADSYN1 (11734609_at) / Fold change /veh KRTAP5-7 /// NADSYN1 (11734609_at) / RFU RASL12 (11751679_a_at) / Fold change /veh RASL12 (11751679_a_at) / RFU CDKN2B (11736163_a_at) / Fold change /veh CDKN2B (11736163_a_at) / RFU PRF1 (11729649_at) / Fold change /veh PRF1 (11729649_at) / RFU, ZNF638 /// ZNF638-IT1 / Fold change vs veh, ZNF638 /// ZNF638-IT1 / RFU, PANK3 / Fold change vs veh, PANK3 / RFU, SH3YL1 / Fold change vs veh, SH3YL1 / RFU, ZEB2 / Fold change vs veh, ZEB2 / RFU, NRIP1 / Fold change vs veh, NRIP1 / RFU, PTTG1IP / Fold change vs veh, PTTG1IP / RFU, CAPN2 / Fold change vs veh, CAPN2 / RFU, MED14 / Fold change vs veh, MED14 / RFU, SNORA58 / Fold change vs veh, SNORA58 / RFU, C1orf63 / Fold change vs veh, C1orf63 / RFU, LRRFIP1 / Fold change vs veh, LRRFIP1 / RFU, NDUFAF7 / Fold change vs veh, NDUFAF7 / RFU, SLC12A2 / Fold change vs veh, SLC12A2 / RFU, IBTK / Fold change vs veh, IBTK / RFU, ESF1 / Fold change vs veh, ESF1 / Fold change vs veh, TMEM50B / RFU, TAOK1 / Fold change vs veh, TAOK1 / RFU, ACBD3 / Fold change vs veh, ACBD3 / RFU, TMA16 / Fold change vs veh, TMA16 / RFU, RWDD3 / Fold change vs veh, RWDD3 / RFU, BCAT1 / Fold change vs veh, BCAT1 / RFU, EDEM3 / Fold change vs veh, EDEM3 / RFU, TMEM33 / Fold change vs veh, TMEM33 / RFU, WDR75 / Fold change vs veh, WDR75 / RFU, AHCTF1 / Fold change vs veh, AHCTF1 / RFU, TFRC / Fold change vs veh, TFRC / RFU, ZDHHC17 / Fold change vs veh, ZDHHC17 / RFU, NOM1 / Fold change vs veh, NOM1 / RFU, ARL8B / Fold change vs veh, ARL8B / RFU, ZBTB11 / Fold change vs veh, ZBTB11 / RFU, TAMM41 / Fold change vs veh, TAMM41 / RFU, KIAA1704 /// LOC100996395 / Fold change vs veh, KIAA1704 /// LOC100996395 / RFU, ING1 / Fold change vs veh, ING1 / RFU, TRMT61B / Fold change vs veh, TRMT61B / RFU, FUBP3 / Fold change vs veh, FUBP3 / RFU, TP53 / Fold change vs veh, TP53 / RFU, TNKS2 / Fold change vs veh, TNKS2 / RFU, ZFP14 / Fold change vs veh, ZFP14 / RFU, ACTR2 / Fold change vs veh, ACTR2 / RFU, PPP3R1 / Fold change vs veh, PPP3R1 / RFU, PIK3R1 / Fold change vs veh, PIK3R1 / RFU, HNRNPA1 / Fold change vs veh, HNRNPA1 / RFU, RNF170 / Fold change vs veh, RNF170 / RFU, ZNF28 / Fold change vs veh, ZNF28 / RFU, RNGTT / Fold change vs veh, RNGTT / RFU, OGT / Fold change vs veh, OGT / RFU, BRD1 / Fold change vs veh, BRD1 / RFU, MARS / Fold change vs veh, MARS / RFU, ZNF655 / Fold change vs veh, ZNF655 / RFU, FAHD1 / Fold change vs veh, FAHD1 / RFU, BDP1 / Fold change vs veh, BDP1 / RFU, LRRCC1 / Fold change vs veh, LRRCC1 / RFU, ARID1A / Fold change vs veh, ARID1A / RFU, ZNF146 / Fold change vs veh, ZNF146 / RFU, ZNF330 / Fold change vs veh, ZNF330 / RFU, GPN3 / Fold change vs veh, GPN3 / RFU, C9orf123 / Fold change vs veh, C9orf123 / RFU, N4BP2L2 / Fold change vs veh, N4BP2L2 / RFU, ARFIP1 / Fold change vs veh, ARFIP1 / RFU, FAM179B / Fold change vs veh, FAM179B / RFU, BCL10 / Fold change vs veh, BCL10 / RFU, UHRF1BP1L / Fold change vs veh, UHRF1BP1L / RFU, BET1 / Fold change vs veh, BET1 / RFU, CNOT2 / Fold change vs veh, CNOT2 / RFU, ZNF268 / Fold change vs veh, ZNF268 / Fold change vs veh, ZNF507 / RFU, DGCR2 / Fold change vs veh, DGCR2 / RFU, WDSUB1 / Fold change vs veh, WDSUB1 / Fold change vs veh, HSP90B1 /// MIR3652 / RFU, ADSS / Fold change vs veh, ADSS / RFU, GK / Fold change vs veh, GK / RFU, ZNF148 / Fold change vs veh, ZNF148 / RFU, TAF9 / Fold change vs veh, TAF9 / RFU, SLC1A5 / Fold change vs veh, SLC1A5 / RFU, SLMO2 / Fold change vs veh, SLMO2 / RFU, ABCC4 / Fold change vs veh, ABCC4 / RFU, LOC101060439 /// RAP1B / Fold change vs veh, LOC101060439 /// RAP1B / RFU, RFX7 / Fold change vs veh, RFX7 / RFU, GTPBP10 / Fold change vs veh, GTPBP10 / RFU, CNEP1R1 / Fold change vs veh, CNEP1R1 / RFU, BIVM-ERCC5 /// ERCC5 / Fold change vs veh, BIVM-ERCC5 /// ERCC5 / RFU, ILF3 / Fold change vs veh, ILF3 / RFU 11762660_at / Fold change /veh 11762660_at / RFU VCAN (11757783_s_at) / Fold change /veh VCAN (11757783_s_at) / RFU DDX43 (11728927_at) / Fold change /veh DDX43 (11728927_at) / RFU KRT8 (11758188_x_at) / Fold change /veh KRT8 (11758188_x_at) / RFU NKD1 (11759106_at) / Fold change /veh NKD1 (11759106_at) / RFU SRD5A1 (11742802_a_at) / Fold change /veh SRD5A1 (11742802_a_at) / RFU TPSAB1 /// TPSB2 (11721975_s_at) / Fold change /veh TPSAB1 /// TPSB2 (11721975_s_at) / RFU GSTM3 (11746129_a_at) / Fold change /veh GSTM3 (11746129_a_at) / RFU IL23R (11737362_x_at) / Fold change /veh IL23R (11737362_x_at) / RFU TMEM51 (11727254_a_at) / Fold change /veh TMEM51 (11727254_a_at) / RFU PIWIL2 (11732686_x_at) / Fold change /veh PIWIL2 (11732686_x_at) / RFU ORM1 (11744905_x_at) / Fold change /veh ORM1 (11744905_x_at) / RFU CCDC152 (11743942_at) / Fold change /veh CCDC152 (11743942_at) / RFU ECM1 (11717891_a_at) / Fold change /veh ECM1 (11717891_a_at) / RFU IL23R (11748794_a_at) / Fold change /veh IL23R (11748794_a_at) / RFU TNFAIP8L3 (11732012_x_at) / Fold change /veh TNFAIP8L3 (11732012_x_at) / RFU MBOAT4 (11741988_at) / Fold change /veh MBOAT4 (11741988_at) / RFU 11764193_at / Fold change /veh 11764193_at / RFU TMEM53 (11763286_at) / Fold change /veh TMEM53 (11763286_at) / RFU MAGEB2 (11727129_at) / Fold change /veh MAGEB2 (11727129_at) / RFU TMEM200A (11744735_a_at) / Fold change /veh TMEM200A (11744735_a_at) / RFU CCDC152 (11751479_a_at) / Fold change /veh CCDC152 (11751479_a_at) / RFU FAM211A (11726209_a_at) / Fold change /veh FAM211A (11726209_a_at) / RFU RGS16 (11746705_a_at) / Fold change /veh RGS16 (11746705_a_at) / RFU VCAN (11755009_s_at) / Fold change /veh VCAN (11755009_s_at) / RFU RHOB (11743442_s_at) / Fold change /veh RHOB (11743442_s_at) / RFU RGS16 (11720943_a_at) / Fold change /veh RGS16 (11720943_a_at) / RFU RGS16 (11720944_at) / Fold change /veh RGS16 (11720944_at) / RFU, VPS4B / Fold change vs veh, VPS4B / RFU, CREB1 / Fold change vs veh, CREB1 / RFU, DNAJC13 / Fold change vs veh, DNAJC13 / RFU, GNAQ / Fold change vs veh, GNAQ / RFU, CDK5R1 / Fold change vs veh, CDK5R1 / RFU, ZRANB3 / Fold change vs veh, ZRANB3 / RFU, CUL4A / Fold change vs veh, CUL4A / RFU, CCNY / Fold change vs veh, CCNY / RFU, UFL1 / Fold change vs veh, UFL1 / RFU, COG3 / Fold change vs veh, COG3 / RFU, DIAPH2 / Fold change vs veh, DIAPH2 / RFU, SKA2 / Fold change vs veh, SKA2 / RFU, AFF3 / Fold change vs veh, AFF3 / RFU, LMF1 / Fold change vs veh, LMF1 / RFU, IPO11 / Fold change vs veh, IPO11 / RFU, DFFB / Fold change vs veh, DFFB / RFU, FOXP1 / Fold change vs veh, FOXP1 / RFU, CARD8 / Fold change vs veh, CARD8 / RFU, STRN3 / Fold change vs veh, STRN3 / RFU, ADK / Fold change vs veh, ADK / RFU, RASSF2 / Fold change vs veh, RASSF2 / RFU, WIPF1 / Fold change vs veh, WIPF1 / RFU, LARP1B / Fold change vs veh, LARP1B / RFU, RASA1 / Fold change vs veh, RASA1 / RFU, RB1 / Fold change vs veh, RB1 / RFU, PPFIA1 / Fold change vs veh, PPFIA1 / RFU, MAT2A / Fold change vs veh, MAT2A / RFU, CCT5 / Fold change vs veh, CCT5 / RFU, WDR92 / Fold change vs veh, WDR92 / RFU, CUX1 / Fold change vs veh, CUX1 / RFU, TTC7A / Fold change vs veh, TTC7A / RFU, TMEM135 / Fold change vs veh, TMEM135 / RFU, DEPTOR / Fold change vs veh, DEPTOR / RFU, CPM / Fold change vs veh, CPM / RFU, DNAJB6 / Fold change vs veh, DNAJB6 / RFU, CACNA2D3 / Fold change vs veh, CACNA2D3 / RFU, DTX4 / Fold change vs veh, DTX4 / RFU, TFCP2 / Fold change vs veh, TFCP2 / RFU, GMCL1 /// GMCL1P1 / Fold change vs veh, GMCL1 /// GMCL1P1 / RFU, AEBP2 / Fold change vs veh, AEBP2 / RFU, SNHG1 /// SNORD22 /// SNORD25 /// SNORD26 /// SNORD27 /// SNORD28 /// SNORD29 /// SNORD31 / Fold change vs veh, SNHG1 /// SNORD22 /// SNORD25 /// SNORD26 /// SNORD27 /// SNORD28 /// SNORD29 /// SNORD31 / Fold change (Aza/veh), C12orf56 (ProbeSet 11735607_a_at) / Fold change (ACY-1035/veh), C12orf56 (ProbeSet 11735607_a_at) / Fold change (Aza/veh), FGFR1OP (ProbeSet 11751329_s_at) / Fold change (ACY-1035/veh), FGFR1OP (ProbeSet 11751329_s_at) / Fold change (Aza/veh), VPS36 (ProbeSet 11739960_a_at) / Fold change (ACY-1035/veh), VPS36 (ProbeSet 11739960_a_at) / RFU SYPL1 (11715823_x_at) / Fold change /veh SYPL1 (11715823_x_at) / RFU IGFBP7 (11715501_s_at) / Fold change /veh IGFBP7 (11715501_s_at) / RFU REEP3 (11722064_at) / Fold change /veh REEP3 (11722064_at) / RFU IGLL1 (11728026_x_at) / Fold change /veh IGLL1 (11728026_x_at): dose or concentration left out as unconfirmed
Details: MV-4-11 cells, 48 hours

`Nc1ccc(-c2cccs2)cc1NC(=O)c1ccc2c(c1)cc(C1CC1)n2CCN1CCOCC1` [ACY-1035] was tested, and the “RFU TNFAIP8L3 (11732012_x_at)” value was 8.37 RFU.

Source: publication PMC5218480 (PLoS ONE, 2017)
